Laboratory results as given in the CheMixHub viscosity set.
Where “and” joins values, the source holds several entries; their conditions need not be identical. Identical values can stand only once.

Experiment: xn = mol fraction of the nth substance listed

COCCO + CC1COC(=O)O1
viscosity [mPa·s], 101.33 kPa
Settings | 298.15 K | 308.15 K | 318.15 K
x1 = 0.0271 | 2.41 | – | –
x1 = 0.0632 | 2.298 | 1.913 | 1.612
x1 = 0.0927 | 2.24 | – | –
x1 = 0.1045 | 2.193 | 1.824 | 1.541
x1 = 0.1523 | 2.104 | 1.756 | 1.484
x1 = 0.1824 | 2.057 | – | –
x1 = 0.2117 | 2.004 | 1.679 | 1.423
x1 = 0.2527 | 1.95 | 1.634 | 1.381
x1 = 0.2995 | 1.917 | – | –
x1 = 0.305 | 1.89 | 1.581 | 1.339
x1 = 0.3489 | 1.843 | 1.537 | 1.306
x1 = 0.397 | 1.794 | 1.492 | 1.273
x1 = 0.4053 | 1.813 | – | –
x1 = 0.4225 | 1.787 | – | –
x1 = 0.4547 | 1.745 | 1.456 | 1.224
x1 = 0.4942 | 1.738 | – | –
x1 = 0.4979 | 1.717 | 1.43 | 1.214
x1 = 0.5467 | 1.7 | – | –
x1 = 0.5531 | 1.68 | – | 1.183
x1 = 0.5954 | 1.664 | 1.385 | 1.172
x1 = 0.5956 | 1.674 | – | –
x1 = 0.6388 | – | 1.361 | 1.147
x1 = 0.6429 | 1.652 | – | –
x1 = 0.6954 | 1.619 | 1.341 | 1.127
x1 = 0.7027 | 1.626 | – | –
x1 = 0.7088 | 1.626 | – | –
x1 = 0.7346 | 1.593 | 1.325 | 1.111
x1 = 0.7911 | 1.602 | – | –
x1 = 0.7959 | 1.574 | 1.31 | 1.098
x1 = 0.8414 | 1.569 | 1.297 | 1.083
x1 = 0.864 | 1.575 | – | –
x1 = 0.9025 | 1.545 | 1.276 | 1.076
x1 = 0.9325 | 1.552 | – | –
x1 = 0.9593 | 1.546 | 1.266 | 1.055
x2 = 0.0163 | 1.534 | – | –

CC(CC(C)(C)C)CC(C)(C)CC(C)(C)C (centres undefined) + CC1CCCCC1
viscosity [mPa·s], 100 kPa
Settings | x2 = 0.125 | x2 = 0.25 | x2 = 0.375 | x2 = 0.5 | x2 = 0.625 | x2 = 0.75 | x2 = 0.875
293.15 K | 3.188 | 2.761 | 2.275 | 1.89 | 1.52 | 1.244 | 0.967
303.15 K | 2.553 | 2.272 | 1.864 | 1.556 | 1.283 | 1.047 | 0.834
313.15 K | 2.1 | 1.886 | 1.574 | 1.32 | 1.096 | 0.908 | 0.725
323.15 K | 1.766 | 1.538 | 1.329 | 1.136 | 0.953 | 0.802 | 0.641

C1CC[C@H]2CCCC[C@H]2C1 + O=C1CCCCC1
viscosity [mPa·s], 101.3 kPa
Settings | 293.15 K | 303.15 K
x2 = 0.05 | 3.262 | 2.558
x2 = 0.1446 | 3.118 | 2.471
x2 = 0.2281 | 3.006 | 2.399
x2 = 0.35 | 2.863 | 2.302
x2 = 0.4482 | 2.767 | 2.231
x2 = 0.5559 | 2.68 | 2.159
x2 = 0.6271 | 2.634 | 2.115
x2 = 0.7252 | 2.586 | 2.06
x2 = 0.8051 | 2.56 | 2.019
x2 = 0.8571 | 2.549 | 1.995
x2 = 0.9322 | 2.543 | 1.964

COCCO + CCCCCO
viscosity [mPa·s]
Settings | 298.15 K | 308.15 K | 318.15 K
101 kPa, x1 = 0.114 | 2.939 | 2.12 | 1.659
101 kPa, x1 = 0.2246 | 2.569 | 1.894 | 1.525
101 kPa, x1 = 0.3317 | 2.346 | 1.724 | 1.427
101 kPa, x1 = 0.4357 | 2.155 | 1.543 | 1.279
101 kPa, x1 = 0.5367 | 2.007 | 1.442 | 1.234
101 kPa, x1 = 0.6347 | 1.894 | 1.413 | 1.222
101 kPa, x1 = 0.7299 | 1.8 | 1.306 | 1.208
101 kPa, x1 = 0.8225 | 1.72 | 1.254 | 1.035
101 kPa, x1 = 0.9125 | 1.686 | 1.249 | 1.036
101.33 kPa, x1 = 0.1741 | – | 1.966 | –
101.33 kPa, x1 = 0.2604 | – | 1.804 | –
101.33 kPa, x1 = 0.3455 | – | 1.665 | –
101.33 kPa, x1 = 0.4796 | – | 1.511 | –
101.33 kPa, x1 = 0.6102 | – | 1.385 | –
101.33 kPa, x1 = 0.7245 | – | 1.309 | –
101.33 kPa, x1 = 0.78 | – | 1.284 | –
101.33 kPa, x1 = 0.9014 | – | 1.23 | –

CCCC(=O)O + c1ccccc1
298.15 K, 101 kPa
Settings | viscosity [mPa·s]
x1 = 0.04 | 0.612
x1 = 0.09 | 0.624
x1 = 0.14 | 0.639
x1 = 0.18 | 0.656
x1 = 0.37 | 0.747
x1 = 0.47 | 0.808
x1 = 0.57 | 0.903
x1 = 0.78 | 1.1

CCCC(=O)O + CC(C)=O
viscosity [mPa·s], 101 kPa
Settings | x1 = 0.0996 | x1 = 0.1883 | x1 = 0.3023 | x1 = 0.3759 | x1 = 0.5144 | x1 = 0.5977 | x1 = 0.7009 | x1 = 0.7989 | x1 = 0.9016 | x1 = 0.9275
298.15 K | 0.3862 | 0.4576 | 0.5666 | 0.6477 | 0.8181 | 0.9307 | 1.071 | 1.216 | 1.361 | 1.408
308.15 K | 0.351 | 0.4131 | 0.5047 | 0.5741 | 0.7153 | 0.8095 | 0.9246 | 1.041 | 1.158 | 1.197
318.15 K | 0.3183 | 0.3666 | 0.4489 | 0.5135 | 0.6265 | 0.7078 | 0.7969 | 0.8942 | 0.9947 | 1.018

[Cl-].[Li+] + O
Settings | viscosity
293.15 K, 101 kPa, x1 = 0.17 | 4.51 mPa·s
293.15 K, 101 kPa, x1 = 0.19 | 6.01 mPa·s
293.15 K, 101 kPa, x1 = 0.2 | 7.36 mPa·s
293.15 K, 101 kPa, x1 = 0.22 | 9.66 mPa·s
293.15 K, 101 kPa, x1 = 0.23 | 10.29 mPa·s
293.15 K, 101 kPa, x1 = 0.24 | 11.28 mPa·s and 12.73 mPa·s
293.15 K, 101 kPa, x1 = 0.25 | 14.55 mPa·s
293.15 K, 101 kPa, x1 = 0.26 | 15.87 mPa·s
293.15 K, 101 kPa, x1 = 0.27 | 17.76 mPa·s
298.15 K, 101 kPa, x1 = 0.26 | 16.51 mPa·s
298.15 K, 101.33 kPa, x1 = 0.2626 | 10.73 mPa·s
303.15 K, 101 kPa, x1 = 0.17 | 3.42 mPa·s
303.15 K, 101 kPa, x1 = 0.19 | 4.61 mPa·s
303.15 K, 101 kPa, x1 = 0.2 | 5.59 mPa·s
303.15 K, 101 kPa, x1 = 0.22 | 7.24 mPa·s
303.15 K, 101 kPa, x1 = 0.23 | 7.44 mPa·s
303.15 K, 101 kPa, x1 = 0.24 | 8.19 mPa·s and 9.29 mPa·s
303.15 K, 101 kPa, x1 = 0.25 | 10.53 mPa·s
303.15 K, 101 kPa, x1 = 0.26 | 11.37 mPa·s
303.15 K, 101 kPa, x1 = 0.27 | 12.85 mPa·s
310.15 K, 101 kPa, x1 = 0.000205 | 0.7179 mPa·s
310.15 K, 101 kPa, x1 = 0.00126 | 0.7026 mPa·s
310.15 K, 101 kPa, x1 = 0.001978 | 0.7036 mPa·s
310.15 K, 101 kPa, x1 = 0.002695 | 0.6772 mPa·s
310.15 K, 101 kPa, x1 = 0.003679 | 0.6492 mPa·s
310.15 K, 101 kPa, x1 = 0.005197 | 0.5792 mPa·s
310.15 K, 101 kPa, x1 = 0.005988 | 0.5574 mPa·s
313.15 K, 101 kPa, x1 = 0.17 | 2.73 mPa·s
313.15 K, 101 kPa, x1 = 0.19 | 3.59 mPa·s
313.15 K, 101 kPa, x1 = 0.2 | 4.32 mPa·s
313.15 K, 101 kPa, x1 = 0.22 | 5.44 mPa·s
313.15 K, 101 kPa, x1 = 0.23 | 5.67 mPa·s
313.15 K, 101 kPa, x1 = 0.24 | 6.36 mPa·s and 6.96 mPa·s
313.15 K, 101 kPa, x1 = 0.25 | 7.83 mPa·s
313.15 K, 101 kPa, x1 = 0.26 | 8.46 mPa·s
313.15 K, 101 kPa, x1 = 0.27 | 9.36 mPa·s
323.15 K, 101 kPa, x1 = 0.17 | 2.26 mPa·s
323.15 K, 101 kPa, x1 = 0.19 | 2.94 mPa·s
323.15 K, 101 kPa, x1 = 0.2 | 3.49 mPa·s
323.15 K, 101 kPa, x1 = 0.22 | 4.37 mPa·s
323.15 K, 101 kPa, x1 = 0.23 | 4.48 mPa·s
323.15 K, 101 kPa, x1 = 0.24 | 4.99 mPa·s and 5.38 mPa·s
323.15 K, 101 kPa, x1 = 0.25 | 6.06 mPa·s
323.15 K, 101 kPa, x1 = 0.26 | 6.55 mPa·s
323.15 K, 101 kPa, x1 = 0.27 | 7.22 mPa·s
